Experiments:
Format in all cases: in vivo
Myzus persicae = assay: Green peach aphid (Myzus persicae) mortality test on dipped pepper plants; settings: 120 h, pepper plant leaves dipped, aphid mortality determined after 5 days, read-out: mortality in comparison with untreated controls
Procedure: (§1) The active compounds were formulated • a. for testing the activity against Aphis gossypii, Myzus persicae, and Aphis fabae, as 50:50 acetone:water solutions amended with 100 ppm Kinetic® (surfactant), • b. for testing the activity against Spodoptera eridania as a 10.000 ppm solution in a mixture of 35% acetone and water, which was diluted with water, if needed.
(§2) After the experiments were completed, in each case the lowest concentration was determined at which the compound still caused an 75 to 100% inhibition or mortality in comparison with untreated controls (limit or minimal concentration).
B.2 Green Peach Aphid (Myzus persicae)
(§3) Pepper plants in the 2nd leaf-pair stage (variety ‘California Wonder’) are infested with approximately 40 laboratory-reared aphids by placing infested leaf sections on top of the test plants. The leaf sections are removed after 24 hr. The leaves of the intact plants are dipped into gradient solutions of the test compound. Aphid mortality on the treated plants, relative to mortality on check plants, is determined after 5 days.

Aphis fabae = assay: Bean aphid (Aphis fabae) mortality test on dipped nasturtium plants; settings: foliar, 72 h, nasturtium foliage and stem dipped, aphid mortality determined after 3 days, read-out: mortality in comparison with untreated controls
Procedure: as §1, §2
B.3 Bean Aphid (Aphis fabae)
Nasturtium plants in the 1st leaf-pair stage (variety ‘Mixed Jewel’) are infested with approximately 25 laboratory-reared aphids by placing infested cut plants on top of the test plants. The cut plants are removed after 24 hr. The foliage and stem of the test plants are dipped into gradient solutions of the test compound. Aphid mortality is determined after 3 days.

Aphis gossypii = assay: Cotton aphid (Aphis gossypii) mortality test on dipped cotton plants; settings: 120 h, cotton cotyledons dipped, aphid mortality determined after 5 days, read-out: mortality in comparison with untreated controls
Procedure: as §1, §2
B.1 Cotton Aphid (Aphis gossypii)
as §3, with “Cotton” for “Pepper”, “cotyledon” for “2nd leaf-pair”, “‘Delta Pine’)” for “‘California Wonder’)”, “100” for “40”, “cotyledons” for “leaves”

Measured: mortality at 300 ppm

COCC(=O)OCCNC(=S)NC1CCc2ccccc21 (racemic) [Example 14, Methoxy-acetic acid 2-(3-indan-1-yl-thioureido)-ethyl ester]
> 80%: all assays above

O=C(OCCNC(=S)NC1CCc2ccccc21)c1ccncc1 (racemic) [Example 13, Isonicotinic acid 2-(3-indan-1-yl-thioureido)-ethyl ester]
> 80%: all assays above
